In patent US9232792B2, “Method for promoting plant growth” (SUMITOMO CHEMICAL COMPANY, LIMITED, priority 2011, dated 2016):

Key:
Assay type in all cases: in vivo
[1] = test system: Tobacco (Nicotiana benthamiana); test: Test Example 4: reduction of low-temperature stress in hydroponics of tobacco; settings: 10 ppm in medium; 1.5±1.0° C. for 7 days, then 3 days at 22° C.
Description: Tobacco (Nicotiana benthamiana)
DMSO solutions containing each of the present compounds 1 to 4 at a concentration of 10,000 ppm were prepared. A 1/1,000 volume of each DMSO solution was added to a Murashige-and-Skoog medium (a medium containing 2.3 g of a mixture of salts for Murashige-and-Skoog medium (manufactured by Wako. Pure Chemical Industries, Ltd.), 200 mg of myoinositol (manufactured by Sigma-Aldrich), 2 mg of nicotinic acid (manufactured by Wako Pure Chemical Industries, Ltd.), 2 mg of pyridoxine hydrochloride (manufactured by Wako Pure Chemical Industries, Ltd.), 20 mg of thiamine hydrochloride (manufactured by Wako Pure Chemical Industries, Ltd.), 20 g of sucrose (manufactured by Wako Pure Chemical Industries, Ltd.), 1 g of MES (manufactured by DOJINDO LABORATORIES) in 1 L of water, adjusted to pH 5.8) at ½ concentration to obtain a medium containing the test compound at a concentration of 10 ppm. These media were used in the treated-group.
In a non-treated group, a medium obtained by adding a 1/1,000 volume of DMSO to a Murashige-and-Skoog medium at ½ concentration was used.
The seeds of tobacco (Nicotiana benthamiana) were sown on 5 μL of the medium, and incubated at 22° C. overnight. Thereto was added 45 μL of a medium containing each present compound at a concentration of 10 ppm, and cultivated for 7 days under the conditions of an illuminance of 4,000 lux, a temperature of 22° C. and a day length of 16 hours, thereby treating the seedlings of tobacco (Nicotiana benthamiana) with the test compound.
In the non-treated group, 45 μL of a medium obtained by adding a 1/1,000 volume of DMSO to a Murashige-and-Skoog medium at ½ concentration was added, and treated in the same manner as above.
The seedlings of tobacco (Nicotiana benthamiana) treated with the present compounds were cultivated for 7 days under the conditions of an illuminance of 2,000 lux, a temperature of 1.5±1.0° C., and a day length of 16 hours, thereby subjecting to low-temperature stress treatment.
The plants of tobacco (Nicotiana benthamiana) subjected to low-temperature stress treatment was cultivated for 3 days under the conditions of an illuminance of 4,000 lux, a temperature of 22° C., and a day length of 16 hours, and then the green leaf area of the plants was visually evaluated. Completely dead plant was scored as 0, the plant without low-temperature stress treatment was scored as 5, the green area was rated on a 6-point scale in ⅕ increments, and the score of not less than 1 was regarded as effective in reducing the stress. As a result of visual evaluation, the green leaf area of plants in the treated group, wherein the plants were treated with the present compound 1, 2, 3 or 4 was much larger than that in the non-treated group.

[2] = test system: Rice (cultivar: Nipponbare); test: Test Example 3: promotion of root growth in hydroponics of rice; settings: 1 ppm in hydroponic solution; 3 days germination + 3 days cultivation
Description: (§1) Rice (cultivar: Nipponbare)
(§2) DMSO solutions containing each of the present compounds 4 to 8 at 10,000 ppm were prepared. A 1/10,000 volume of each DMSO solution containing each of the present compounds 4 to 8 at 10,000 ppm was added to a Hoagland solution for hydroponics at ¼ concentration (Hoagland and Arnon, California Agricultural Experiment Station 1950 Circular 347 pp. 34) to obtain a solution for hydroponics containing each of the present compounds 4 to 8 at 1 ppm. These solutions were used in the treated-group.
(§3) In a non-treated group, a solution for hydroponics obtained by adding a Hoagland solution for hydroponics at ¼ concentration to a 1/10,000 volume of DMSO was used.
(§4) The rice seeds were immersed in an aqueous solution of 1% sodium hypochlorite for 10 minutes, followed by 70% ethanol solution to sterilize their surfaces. After that, the seeds were washed with distilled water. The sterilized seeds were immersed in each solution for hydroponics containing the test compound at the given concentration, and incubated at a temperature of 28° C. for 3 days under dark conditions to stimulate the germination of the seeds.
(§5) Then, 30 ml of each solution for hydroponics containing the test compound at the given concentration was dispensed into a plastic tube (20 mm in diameter×113 mm in height) covered with a cardboard on the lateral surface for blocking a light. A float made of a styrene board and a vinyl mesh was placed on the water surface of each solution for hydroponics, and the rice seeds obtained after the stimulation of germination were placed on the float. The seeds were cultivated for 3 days under the conditions of an illuminance of 4,000 lux at the top of the tube, a temperature of 26° C., a humidity of 50%, and a day length of 16 hours.
The root length of the rice seedlings obtained after the cultivation was measured by using WinRHIZO system (manufactured by REGENT INSTRUMENTS). The average value of the root length in the treated group was calculated from the measurement values of 4 or 5 individuals. As a result, the root length in the treated group, wherein the plants were treated with the present compound 4, 5, 6, 7 or 8 (at a concentration of 1 ppm in each case), was much longer than that in the non-treated group.

[3] = test system: Rice (cultivar: Nipponbare); test: Test Example 1: promotion of root growth in hydroponics of rice; settings: 1 ppm in hydroponic solution; 3 days germination + 3 days cultivation
Description: as §1
as §2, with “compounds 1” for “compounds 4”, “to 3” for “to 8”
as §3, §4, §5
The root length of the rice seedlings obtained after the cultivation was measured by using WinRHIZO system (manufactured by REGENT INSTRUMENTS). The average value of the root length in the treated group was calculated from the measurement values of 4 or 5 individuals. […]

Row | Compound | green leaf area of plants (visual evaluation) vs non-treated group [1] | root length of the rice seedlings vs non-treated group [2] | root length of the rice seedlings vs non-treated group [3]
1 | O=C(O)c1cc2cccc(C(F)(F)F)c2s1 [The present compound 4, 7-(trifluoromethyl)benzo[b]thiophene-2-carboxylic acid] | much larger | much longer | –
2 | O=C([O-])c1cc2cc(C(F)(F)F)ccc2s1.[Na+] [The present compound 5, sodium 5-(trifluoromethyl)benzo[b]thiophene-2-carboxylate] | – | much longer | –
3 | CC(C)N.O=C(O)c1cc2cc(C(F)(F)F)ccc2s1 [The present compound 7, isopropylammonium 5-(trifluoromethyl)benzo[b]thiophene-2-carboxylate] | – | much longer | –
4 | O=C(O)c1cc2c(C(F)(F)F)cccc2s1 [The present compound 3, 4-(trifluoromethyl)benzo[b]thiophene-2-carboxylic acid] | much larger | – | much longer
5 | laurylammonium 5-(trifluoromethyl)benzo[b]thiophene-2-carboxylate [The present compound 8] | – | much longer | –
6 | O=C([O-])c1cc2cc(C(F)(F)F)ccc2s1.[K+] [The present compound 6, potassium 5-(trifluoromethyl)benzo[b]thiophene-2-carboxylate] | – | much longer | –
7 | O=C(O)c1cc2ccc(C(F)(F)F)cc2s1 [The present compound 2, 6-(trifluoromethyl)benzo[b]thiophene-2-carboxylic acid] | much larger | – | much longer
